Patent US5334612A, “Pharmaceutical compositions containing as active substance sulphur-containing carboxylic acids and their use in combating retroviruses” (priority 1988, dated 1994)

Legend:
[1] = system: HIV from patient lymphocytes; assay: Virus isolation with cell titration; format: in vivo, human patients (HIV)
Method: (§1) Virus isolation without cocultivation: the production of virus (p24) from 1×10^6 patient lymphocytes is quantitatively measured using an ELISA after 11 days. No donor lymphocytes are added in this standardized method. Virus production may be quoted in pg^1 p24/ml/200,000 cells. (Newly developed method). Cell titration: virus isolation is carried out starting from a decreasing number of patient lymphocytes (e.g. 10^6, 10^5, 10^4).
(§2) The following results were recorded in 4 patients in Walter Reed stage 6. Application of α-lipoic acid was, by means of infusion of an α-lipoic acid solution having the following composition: 10 ml of aqueous solution containing 250 mg of α-lipoic acid in the form of the ethylene diamine salt (=323 mg salt) as well as 1 g of 1,2-propylene glycol and 100 mg of benzyl alcohol.

HIV-1 = assay: Reduction of infectious viruses (HIV-1) in cell culture supernatant in vitro; format: cell-based
Method: For example the compounds of Formula I have a good, growth-inhibiting effect on HIV (type 1 and 2) which may be shown in vitro for example in the following virological-cell biological test processes:
3. Determination of reverse transcriptase in culture supernatant
4. Determination of the p24 antigen in culture supernatant
Thus, for example, a single dose of 0.035 mg/ml of compound I (for example alpha-lipoic acid, racemate) reduces the number of infectious viruses (for example HIV-1) in cell culture supernatant from 100% in the positive control to 0%.
For the in vitro trials the active substance of Formula I is used, for example in benzyl alcohol as solvent.
For in vitro investigations into the replication behavior of retroviruses, in particular HIV, it is for example possible to use the following substrates:
1. Virus-containing RPMI 1640 medium, for example 1X liquid 041-01875 (synthetic culture medium from Gibeo according to Moore, Gerner and Franklin, H.A. (1967), J.A.M.A. 199; 519) with a concentration of 2×10^3 -1×10^4 infectious units (PFU)/ml.
2. The cell lines Jurkat Clone E6-1, Sup T1 and HeLa CT4.

[2] = Acute toxicity in the mouse (LD 50, Miller and Tainter); conditions: in vivo, oral
Method: The acute toxicity of α-lipoic acid in the mouse (expressed in the LD 50 mg/kg; Method after Miller and Tainter: Proc. Soc. Exper. Biol. a. Med. 57 (1944) 261) is, for example, in oral application above 400 mg/kg body weight, that of dihydrolipoic acid above 200 mg/kg body weight mouse.

[3] = system: peripheral blood lymphocytes; assay: Proliferation rate or lethality of peripheral blood lymphocytes; format: cell-based; conditions: 70 μg/ml
[4] = system: HIV-1 in permanently infected Molt4 cells; assay: Plaque test, tumor cell line (Molt4) permanently infected with HIV-1; format: cell-based
From the text: (§3) The inhibitory effect is shown in a cell line permanently infected with HIV-1.
(§4) 1. Negative (non infected) cells (for example Molt 4) are removed from the culture bottle with RPMI 1640 culture medium and centrifuged down in an appropriate vessel. As a basic principle, the negative cells may be the cells from any CD4 receptor-positive T-cell line. It is, for example, possible to use the following commercially available cell lines: H9, Hut78, SupT1, Jurkat, Molt4. Molt4 is for example a monoclonal T-cell line of the peripheral blood of a cancer patient. T-cell lines are derived from human tumors, for example from specific forms of leukemia. Cell lines of this type grow permanently as long as they are kept in the appropriate culture medium and CO2 concentration in an incubator at 37° C. These lines may be purchased from the American Type Culture Collection (ATCC).
2. These Molt4 cells are then resuspended (taken up) in highly virus-containing culture medium (RPMI 1640+10% fetal calf serum) placed in a culture flask and incubated (cultivated) for ca. 12 hours in an incubator at 37° C. and 5% CO2. This infects part (depending on the concentration of the infectious virus) of the cells.
3. After 12 hours the cells are again separated by centrifugation and resuspended in fresh medium (RPMI 1640, containing no virus) and cultivated for ca. 4 weeks in an incubator.
4. Once every week the medium is completely replaced (separated by centrifugation, resuspended, etc.) and negative, non-infected cells are added.
5. After ca. 4 weeks 80-100% of the cells are infected=permanently infected cell line. The infection is for example determined using immunofluorescence. The cells infected in this manner produce HIV in a titer range of about 10^5 -10^6 infectious units (PFU). The tumor cell line permanently infected in this manner (Molt4) is treated for three weeks with 70 μg of α-lipoic acid/ml. Every three days culture medium and α-lipoic acid are replaced and the activity of the virus determined in the reverse transcriptase and plaque test. […]

[5] = system: HIV-1 in permanently infected Molt4 cells; assay: Reverse transcriptase test, tumor cell line (Molt4) permanently infected with HIV-1; format: cell-based; conditions: 70 μg/ml, FIG. 1
From the text: as §3, §4
2. These Molt4 cells are then resuspended (taken up) in highly virus-containing culture medium (RPMI 1640+10% fetal calf serum) placed in a culture flask and incubated (cultivated) for ca. 12 hours in an incubator at 37° C. and 5% CO2. […]
5. […] The infection is for example determined using immunofluorescence. […] Every three days culture medium and α-lipoic acid are replaced and the activity of the virus determined in the reverse transcriptase and plaque test. […]

[6] = Plasma level at normal oral dosage; format: in vivo; conditions: side effect-free dosage
[7] = system: HIV p24 production from patient lymphocytes; assay: Virus isolation without cocultivation, p24 production of patient lymphocytes; format: in vivo, human patients (HIV)
Method: as §1, §2

[8] = cited from earlier work
infectious HIV in plasma = assay: Plasma titer (number of infectious viruses in the plasma); format: in vivo, human patients (HIV)
Method: (§5) Determination of the plasma titer which states the number of infectious viruses in the plasma.
as §2

[9] = system: HIV from patient lymphocytes; assay: Virus isolation with cocultivation (standard method) from patient lymphocytes; format: in vivo, human patients (HIV)
Method: (§6) Virus isolation with cocultivation: patient lymphocytes are cocultivated with donor lymphocytes. The virus produced by these cells (p24) is measured using an ELISA after 21 days (standard method).
as §2

HIV = assay: Virological markers overall in HIV-infected patients; format: in vivo
Method: (§7) Determination of the plasma p24 antigen level using a commercial ELISA; p24 is the designation for a structural protein of the HIV virus; ELISA (Enzyme Linked Immuno Sorbent Assay) is a test technique frequently used in virology in order to determine proteins, antigens, etc.
as §6, §1, §5, §2

[10] = system: HIV in freshly infected Jurkat cells; assay: Plaque test, freshly infected Jurkat cells; format: cell-based; conditions: 7 days
Method: To compare both compounds, freshly split Jurkat cells were infected with HIV (8×10^3 PFU) and afterwards recombinant alpha interferon (rIF) (70 units/ml) or 35 ng/ml of α-lipoic acid was added thereto using a pipette. The experiment was concluded after 7 days in order to assess in particular the growth of the first virus generation.
Cells are taken up in fresh medium and may now be defined as being freshly infected cells. As distinct from permanently infected cells, far fewer cells are virus carriers, and therefore synchronously treated, i.e. the first and second virus generation is given off into the culture supernatant relatively at the same time on the 3rd and 7th day. These virus generations may be quantified on these days (plaque and reverse transcriptase test) and may be compared. The term "single hit kinetics" is also used in this context.
3. α-lipoic acid is added using a pipette.
Cells are cultured for 7 days in an incubator.
On day 4 and day 7 samples are withdrawn from the culture for plaque and RT assay.

plasma p24 antigen (HIV) = assay: Plasma p24 antigen level (ELISA) in HIV-infected patients; format: in vivo, human patients (HIV)
Method: as §7, §2
Walter Reed stages: division of HIV-infected patients according to the degree of their clinical symptoms. In stage 0 no HIV virus can be detected. Stage 6 relates to the final stage of AIDS.

[11] = animal experiments, rats and mice; cited from earlier work
[12] = patient 2, towards the end and after conclusion of therapy

## O=C(O)CCCCC1CCSS1 (racemic) [α-lipoic acid]
[1]; patient 2, during treatment, before treatment 10^3 cells
  cell titer, number of cells from which virus could be cultivated: 10^5 cells
[1]; patient 2, during treatment, before treatment 1000
  cell titer, fall: fell by two orders of magnitude
[1]; patient 4, after conclusion of therapy
  results after conclusion of therapy: deteriorated once again
[1]; patient 4, end of therapy (in the current range), before therapy virus clearly detected in 2×10^6 cells
  virus detection: hardly any viruses could be detected
HIV-1; Human immunodeficiency virus 1, same test procedure, read-out: low dose at which a virus-inhibiting effect can be demonstrated
  minimal effective concentration: 1 µg/mL
HIV-1; Human immunodeficiency virus 1, single dose of 0.035 mg/ml, read-out: number of infectious viruses in cell culture supernatant (positive control 100%)
  activity at 35 µg/mL: 0%
[2]
  LD50: > 400 mg/kg
[3]
  proliferation rate or lethality of peripheral blood lymphocytes: not substantially affected
[4]; Human immunodeficiency virus 1, MOLT-4, 72 h, read-out: reduction of infectious virus units
  inhibition at 70 µg/mL: ~100%
[4]; after 3 days, 70 μg/ml, FIG. 1
  number of infectious virus units: about 0
[4]; three weeks, 70 μg/ml
  development of tolerance: no sign or evidence of the development of tolerance after three weeks
[5]
  time from which number of virus units produced falls: ≥ 6 days
[5]; Human immunodeficiency virus 1, MOLT-4, 504 h, after three weeks, read-out: reduction of number of virus units produced
  inhibition at 70 µg/mL: 90%
[6]
  factor by which 70 μg/ml is above the plasma levels: 10-20 times
[7]; cases 2, 3 and 4, summary
  virus production in virus isolations from patient lymphocytes: markedly lower virus production
[7]; patient 3, after the end of therapy
  production of p24 antigen, change after end of therapy: rose again slowly
[7]; patient 3, by day 28, before therapy about 10
  production of p24 antigen: 0 pg/ml 200,000 cells
[7]; patient 3, day 5 of therapy, before therapy about 10 pg/ml 200,000 cells
  production of p24 antigen, change: doubled
[7]; patient 4, after end of therapy, also treated with AZT
  p24 production, change after end of therapy: did not rise significantly
[7]; patient 4, up to the end of therapy, before therapy 8 pg/ml, also being treated with AZT at this time
  p24 production/ml/200,000 cells, fall: 75%
[8]; racemate
  pharmacological properties: anti-inflammatory, antinociceptive (analgesic) and cytoprotective properties
[8]; α-lipoic acid racemate
  effect in fungus poisoning / coenzyme and growth factor roles: acts as co-enzyme in many enzymatic reactions, constitutes a growth factor for certain bacteria and protozoas and is used in death-head fungus poisoning
Infectious HIV in plasma; cases 2 and 4, in the course of therapy, summary
  positive plasma titers: 0
Infectious HIV in plasma; patient 3
  plasma titrations: always negative
Infectious HIV in plasma; patient 4, during therapy, before therapy 10
  plasma titer: 0
[9]; cases 2 and 3, summary
  virus isolation from patient lymphocytes: totally negative
[9]; patient 1, throughout the entire therapy period
  virus isolation (standard method): positive
[9]; [12]
  virus isolation: repeatedly negative
HIV; [12]
  virus markers: drastic fall in all virus markers
HIV; patients with clearly measurable virological markers
  improvement in virological markers: marked improvement in these parameters
[10]; infected, not pre-treated Jurkat cells, α-lipoic acid 35 ng/ml (so in the source), rIF 70 units/ml, FIG. 2 and 3
  inhibition of viral replication: comparable inhibition
[10]; α-lipoic acid 35 ng/ml (so in the source) vs rIF 70 units/ml, FIG. 3
  inhibition in the plaque test: clearer
Plasma p24 antigen (HIV); cases 1 and 2, ca. 14 days, summary
  plasma p24 antigen level, fraction of initial value: 1/10
Plasma p24 antigen (HIV); patient 1, infusion, 14 days after commencement of therapy, before therapy 0.350 ng/ml
  plasma p24 antigen level: 0.05 ng/mL
Plasma p24 antigen (HIV); patient 1, infusion, day 29, before therapy 0.350 ng/ml
  plasma p24 antigen level: 0.025 ng/mL
Plasma p24 antigen (HIV); patient 1, infusion, until end of therapy (58 days), before therapy 0.350 ng/ml
  plasma p24 antigen level: 0.25 ng/mL
Plasma p24 antigen (HIV); patient 2, infusion, prior to treatment 0.4 ng/ml
  plasma p24 antigen level, initial fall: barely the 10-fold value
Plasma p24 antigen (HIV); patient 3
  plasma p24 antigen level: always negative
Plasma p24 antigen (HIV); patient 4, after end of therapy
  plasma p24 antigen level, change after end of therapy: again rose to the initial values
Plasma p24 antigen (HIV); patient 4, infusion, up to the 18th day of therapy, before/at beginning of therapy 0.070 ng/ml
  plasma p24 antigen level: 0.005 ng/mL

## O=C(O)CCCCC(S)CCS (stereo not drawn) [dihydrolipoic acid, 6,8-dimercapto-octanoic acid]
[2]
  LD50: > 200 mg/kg
[11]
  inactivation of snake venom: inactivates snake venom
